From ChEMBL document CHEMBL1128894, “Enzymatic cyclization of nicotinamide adenine dinucleotide phosphate (NADP)” (Bioorg Med Chem Lett, 1995)

Species on record: Rattus norvegicus
Experiment: Effective concentration for calcium mobilization (Ca 2+ release) in rat brain microsomes
Assay type: functional

EC50	SMILES
0.1 µM	O=P(O)(O)O[C@@H]1[C@H](O)[C@H](O)[C@@H](OP(=O)(O)O)[C@H](OP(=O)(O)O)[C@H]1O [INS(1,4,5)P3]
22 µM	N=c1c2ncn3c2ncn1[C@@H]1O[C@H](COP(=O)(O)OP(=O)(O)OC[C@H]2OC3[C@H](O)[C@@H]2O)[C@@H](O)[C@H]1O
9.2 µM	N=c1c2ncn3c2ncn1[C@@H]1O[C@H](COP(=O)(O)OP(=O)(O)OC[C@H]2O[C@@H]3[C@H](OP(=O)(O)O)[C@@H]2O)[C@@H](O)[C@H]1O
